# Data reported in patent US10457655B2, “Compounds and compositions for inhibition of FASN” (FORMA Therapeutics, Inc., priority 2013, dated 2019).
# pIC50: −log10 of the molar value.
# Target: FASN enzyme (Homo sapiens, UniProt P49327)
# Assay: Enzymatic Assay for FASN Inhibitors
# Assay type: biochemical
# Conditions: not given
# Outline: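 40 nM FASN preincubated with compound 60 min at 25° C in HEPES pH 7.3 buffer with 0.04% Triton X-100. Then 20 μM acetyl-CoA, 60 μM malonyl-CoA and 100 μM NADPH added for 90 min, quenched with CPM thiol probe; fluorescence 360/530 nm, IC50 by four-parameter fit.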
# Chain of FASN enzyme (P49327 whole entry): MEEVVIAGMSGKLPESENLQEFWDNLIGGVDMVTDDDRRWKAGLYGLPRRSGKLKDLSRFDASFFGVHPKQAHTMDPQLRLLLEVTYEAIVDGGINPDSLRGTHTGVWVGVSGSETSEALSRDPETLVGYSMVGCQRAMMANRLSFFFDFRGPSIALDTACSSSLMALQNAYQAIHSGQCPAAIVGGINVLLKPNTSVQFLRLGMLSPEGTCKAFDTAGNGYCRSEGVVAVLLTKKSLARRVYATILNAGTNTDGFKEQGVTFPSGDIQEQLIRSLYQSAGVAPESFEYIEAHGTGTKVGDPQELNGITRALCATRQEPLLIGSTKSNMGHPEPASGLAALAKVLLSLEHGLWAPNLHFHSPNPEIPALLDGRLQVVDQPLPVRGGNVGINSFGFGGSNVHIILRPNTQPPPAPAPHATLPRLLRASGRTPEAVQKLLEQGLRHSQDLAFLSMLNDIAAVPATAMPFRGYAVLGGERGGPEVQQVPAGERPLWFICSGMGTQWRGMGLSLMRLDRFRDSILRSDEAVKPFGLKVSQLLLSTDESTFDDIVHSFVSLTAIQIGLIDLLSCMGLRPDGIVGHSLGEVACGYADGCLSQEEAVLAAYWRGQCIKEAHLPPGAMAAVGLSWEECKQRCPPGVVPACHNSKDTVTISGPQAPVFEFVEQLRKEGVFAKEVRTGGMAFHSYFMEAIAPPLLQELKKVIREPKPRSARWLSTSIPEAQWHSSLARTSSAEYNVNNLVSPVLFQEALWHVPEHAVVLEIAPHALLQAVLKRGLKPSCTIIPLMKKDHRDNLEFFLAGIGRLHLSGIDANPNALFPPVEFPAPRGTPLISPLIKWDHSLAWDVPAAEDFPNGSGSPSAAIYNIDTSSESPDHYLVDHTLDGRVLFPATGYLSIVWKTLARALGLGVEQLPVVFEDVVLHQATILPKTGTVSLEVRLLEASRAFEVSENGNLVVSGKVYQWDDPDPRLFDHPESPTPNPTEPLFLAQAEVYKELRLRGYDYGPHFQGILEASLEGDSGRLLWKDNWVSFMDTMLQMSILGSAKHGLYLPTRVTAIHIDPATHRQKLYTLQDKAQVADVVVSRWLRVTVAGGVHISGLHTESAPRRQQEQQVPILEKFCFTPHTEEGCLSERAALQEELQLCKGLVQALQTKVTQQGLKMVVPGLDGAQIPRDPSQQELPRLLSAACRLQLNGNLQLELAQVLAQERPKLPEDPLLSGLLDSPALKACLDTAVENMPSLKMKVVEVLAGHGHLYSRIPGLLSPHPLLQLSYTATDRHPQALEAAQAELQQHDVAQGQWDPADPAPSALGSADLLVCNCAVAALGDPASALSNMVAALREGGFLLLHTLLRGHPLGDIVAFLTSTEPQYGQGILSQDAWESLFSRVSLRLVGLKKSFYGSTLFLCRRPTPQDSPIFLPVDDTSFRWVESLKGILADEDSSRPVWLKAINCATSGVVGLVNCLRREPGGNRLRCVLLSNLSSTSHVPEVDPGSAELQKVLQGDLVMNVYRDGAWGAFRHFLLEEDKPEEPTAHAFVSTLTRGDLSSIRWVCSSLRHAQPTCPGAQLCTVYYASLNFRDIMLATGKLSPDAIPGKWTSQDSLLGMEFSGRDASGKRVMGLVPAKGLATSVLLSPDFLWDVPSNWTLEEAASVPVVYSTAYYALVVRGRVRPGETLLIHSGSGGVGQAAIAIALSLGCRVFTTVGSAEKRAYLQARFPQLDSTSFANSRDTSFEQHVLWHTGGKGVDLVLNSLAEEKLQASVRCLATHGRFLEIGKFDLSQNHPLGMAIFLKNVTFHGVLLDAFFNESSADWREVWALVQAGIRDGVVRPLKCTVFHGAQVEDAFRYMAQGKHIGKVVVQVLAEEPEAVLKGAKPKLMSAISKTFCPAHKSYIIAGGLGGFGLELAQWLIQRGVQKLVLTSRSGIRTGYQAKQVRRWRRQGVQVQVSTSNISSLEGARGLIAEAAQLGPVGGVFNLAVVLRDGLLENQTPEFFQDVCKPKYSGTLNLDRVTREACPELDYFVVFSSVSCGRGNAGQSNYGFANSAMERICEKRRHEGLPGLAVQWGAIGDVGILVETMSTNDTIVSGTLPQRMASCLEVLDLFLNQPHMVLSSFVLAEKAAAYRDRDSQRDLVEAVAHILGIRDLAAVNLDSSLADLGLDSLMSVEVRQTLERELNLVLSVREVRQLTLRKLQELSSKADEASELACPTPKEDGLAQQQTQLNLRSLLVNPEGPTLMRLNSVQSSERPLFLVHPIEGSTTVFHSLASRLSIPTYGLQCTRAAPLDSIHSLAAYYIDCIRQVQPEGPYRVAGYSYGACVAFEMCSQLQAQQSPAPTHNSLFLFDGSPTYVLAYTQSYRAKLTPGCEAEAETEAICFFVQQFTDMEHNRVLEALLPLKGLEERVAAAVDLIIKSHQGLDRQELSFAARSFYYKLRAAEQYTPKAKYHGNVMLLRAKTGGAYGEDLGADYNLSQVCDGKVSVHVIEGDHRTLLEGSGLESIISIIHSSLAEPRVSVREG
row,SMILES,pIC50
1,"O=C(c1ccc(-c2nc3ccc(Cl)cc3o2)c(F)c1)N1CCN(C(=O)C2(O)CC2)CC1 [1-{4-[4-(6-chloro-1,3-benzoxazol-2-yl)-3-fluorobenzoyl]piperazine-1-carbonyl}cyclopropan-1-ol]",> 6.30
2,"O=C(c1ccc(-c2nc3ccc(F)cc3o2)cc1)N1CCN(C(=O)C2(O)CC2)CC12CC2 [1-{4-[4-(6-fluoro-1,3-benzoxazol-2-yl)benzoyl]-4,7-diazaspiro[2.5]octane-7-carbonyl}cyclopropan-1-ol]",> 6.30
3,"Cn1nnc2cc(-c3ccc(C(=O)N4CCN(C(=O)C5(O)CC5)CC4)cc3)c(F)cc21 [1-{4-[4-(6-fluoro-1-methyl-1H-1,2,3-benzotriazol-5-yl)benzoyl]piperazine-1-carbonyl}cyclopropan-1-ol]",> 6.30
4,O=C(c1ccc(-c2ncc3cc(F)ccc3n2)cc1)N1CCN(C(=O)C2(O)CC2)CC1 [1-{4-[4-(6-fluoroquinazolin-2-yl)benzoyl]piperazine-1-carbonyl}cyclopropan-1-ol],> 6.30
5,"COc1ccc2nc(-c3ccc(C(=O)N4CCN(C(=O)C5(O)CC5)CC4)cc3)oc2c1 [1-{4-[4-(6-methoxy-1,3-benzoxazol-2-yl)benzoyl]piperazine-1-carbonyl}cyclopropan-1-ol]",> 6.30
6,O=C(c1ccc(-c2n[nH]c3c(F)cccc23)cc1)N1CCN(C(=O)C2(O)CC2)CC1 [1-{4-[4-(7-fluoro-1H-indazol-3-yl)benzoyl]piperazine-1-carbonyl}cyclopropan-1-ol],> 6.30
7,"O=C(c1ccc(N2CCc3cccc(F)c32)cc1)N1CCN(C(=O)C2(O)CC2)CC1 [1-{4-[4-(7-fluoro-2,3-dihydro-1H-indol-1-yl)benzoyl]piperazine-1-carbonyl}cyclopropan-1-ol]",> 6.30
8,"COc1ccc2c(c1)CN(c1ccc(C(=O)N3CCN(C(=O)C4(O)CC4)CC3)cc1)CC2 [1-{4-[4-(7-methoxy-1,2,3,4-tetrahydroisoquinolin-2-yl)benzoyl]piperazine-1-carbonyl}cyclopropan-1-ol]",> 6.30
9,CNC(=O)COc1cccc(-c2ccc(C(=O)N3CCN(C(=O)C4(O)CC4)CC3)cc2)c1 [2-(3-{4-[4-(1-hydroxycyclopropanecarbonyl)piperazine-1-carbonyl]phenyl}phenoxy)-N-methylacetamide],> 6.30
10,"O=C(c1ccc(-c2cccc(N3CCCS3(=O)=O)c2)cc1)N1CCN(C(=O)C2(O)CC2)CC1 [2-(3-{4-[4-(1-hydroxycyclopropanecarbonyl)piperazine-1-carbonyl]phenyl}phenyl)-1λ^6,2-thiazolidine-1,1-dione]",> 6.30

# The next lines start with the values.
row,pIC50,SMILES
1,> 6.30,CC(C)(C#N)c1cccc(-c2ccc(C(=O)N3CCN(C(=O)C4(O)CC4)CC3)cc2)c1 [2-(3-{4-[4-(1-hydroxycyclopropanecarbonyl)piperazine-1-carbonyl]phenyl}phenyl)-2-methylpropanenitrile]
2,> 6.30,N#CCc1cccc(-c2ccc(C(=O)N3CCN(C(=O)C4(O)CC4)CC3)cc2)c1 [2-(3-{4-[4-(1-hydroxycyclopropanecarbonyl)piperazine-1-carbonyl]phenyl}phenyl)acetonitrile]
3,> 6.30,"N#Cc1ccc2oc(-c3ccc(C(=O)N4CCN(C(=O)C5(O)CC5)CC4)cc3)nc2c1 [2-[4-({4-[(1-hydroxycyclopropyl)carbonyl]piperazin-1-yl}carbonyl)phenyl]-1,3-benzoxazole-5-carbonitrile]"
4,> 6.30,"N#Cc1ccc2c(c1)CN(c1ccc(C(=O)N3CCN(C(=O)C4(O)CC4)CC3)cc1)CC2 [2-{4-[4-(1-hydroxycyclopropanecarbonyl)piperazine-1-carbonyl]phenyl}-1,2,3,4-tetrahydroisoquinoline-7-carbonitrile]"
5,> 6.30,"O=C(c1ccc(-c2cccc(NS(=O)(=O)CCC(F)(F)F)c2)cc1)N1CCN(C(=O)C2(O)CC2)CC1 [3,3,3-trifluoro-N-(3-{4-[4-(1-hydroxycyclopropanecarbonyl)piperazine-1-carbonyl]phenyl}phenyl)propane-1-sulfonamide]"
6,> 6.30,"O=C(Nc1cccc(-c2ccc(C(=O)N3CCN(C(=O)C4(O)CC4)CC3)cc2)c1)C1CC(F)(F)C1 [3,3-difluoro-N-(3-{4-[4-(1-hydroxycyclopropanecarbonyl)piperazine-1-carbonyl]phenyl}phenyl)cyclobutane-1-carboxamide]"
7,> 6.30,"Nc1cc(-c2cccc(-c3ccc(C(=O)N4CCN(C(=O)C5(N)CC5)CC4)c(F)c3)c2)no1 [3-(3-{4-[4-(1-aminocyclopropanecarbonyl)piperazine-1-carbonyl]-3-fluorophenyl}phenyl)-1,2-oxazol-5-amine]"
8,> 6.30,O=C(c1ccc(-c2cccc(S(=O)(=O)NC3CC3)c2)cc1Cl)N1CCN(C(=O)C2(O)CC2)CC1 [3-[3-chloro-4-({4-[(1-hydroxycyclopropyl)carbonyl]piperazin-1-yl}carbonyl)phenyl]-N-cyclopropylbenzene-1-sulfonamide]
9,> 6.30,CNC(=O)c1cccc(-c2ccc(C(=O)N3CCN(C(=O)C4(O)CC4)CC3)cc2)c1 [3-{4-[4-(1-hydroxycyclopropanecarbonyl)piperazine-1-carbonyl]phenyl}-N-methylbenzamide]

# Same assay, conditions: FASN enzymatic assay; Table 2-2
row,SMILES,pIC50
1,CC(C)n1ncc2cc(-c3ccc(C(=O)N4CCN(C(=O)C5(O)CC5)CC4)cc3)ccc21 [1-{[4-({4-[1-(propan-2-yl)-1H-indazol-5-yl]phenyl}carbonyl)piperazin-1-yl]carbonyl}cyclopropan-1-ol],5.30 to 6.30
2,"O=C(c1ccc(-c2ccc3nc(C(F)(F)F)cn3c2)cc1)N1CCN(C(=O)C2(O)CC2)CC1 [1-{[4-({4-[2-(trifluoromethyl)imidazo[1,2-a]pyridin-6-yl]phenyl}carbonyl)piperazin-1-yl]carbonyl}cyclopropan-1-ol]",5.30 to 6.30
3,O=C(c1ccc(-c2cc(C(F)(F)F)ccc2Cl)cc1)N1CCN(C(=O)C2(O)CC2)CC1 [1-{[4-({4-[2-chloro-5-(trifluoromethyl)phenyl]phenyl}carbonyl)piperazin-1-yl]carbonyl}cyclopropan-1-ol],5.30 to 6.30
4,O=C(c1ccc(-c2cccc(OC(F)(F)F)c2F)cc1)N1CCN(C(=O)C2(O)CC2)CC1 [1-{[4-({4-[2-fluoro-3-(trifluoromethoxy)phenyl]phenyl}carbonyl)piperazin-1-yl]carbonyl}cyclopropan-1-ol],5.30 to 6.30
5,O=C(c1ccc(-c2cccc(C(F)(F)F)c2F)cc1)N1CCN(C(=O)C2(O)CC2)CC1 [1-{[4-({4-[2-fluoro-3-(trifluoromethyl)phenyl]phenyl}carbonyl)piperazin-1-yl]carbonyl}cyclopropan-1-ol],5.30 to 6.30
6,O=C(c1ccc(-c2cc(F)cc(C(F)(F)F)c2)cc1)N1CCN(C(=O)C2(O)CC2)CC1 [1-{[4-({4-[3-fluoro-5-(trifluoromethyl)phenyl]phenyl}carbonyl)piperazin-1-yl]carbonyl}cyclopropan-1-ol],5.30 to 6.30
7,O=C(c1ccc(-c2ccc(Cl)cc2C(F)(F)F)cc1)N1CCN(C(=O)C2(O)CC2)CC1 [1-{[4-({4-[4-chloro-2-(trifluoromethyl)phenyl]phenyl}carbonyl)piperazin-1-yl]carbonyl}cyclopropan-1-ol],5.30 to 6.30
8,O=C(c1ccc(-c2ccc(F)cc2C(F)(F)F)cc1)N1CCN(C(=O)C2(O)CC2)CC1 [1-{[4-({4-[4-fluoro-2-(trifluoromethyl)phenyl]phenyl}carbonyl)piperazin-1-yl]carbonyl}cyclopropan-1-ol],5.30 to 6.30
9,O=C(c1ccc(-c2ccnc3cc(C(F)(F)F)ccc23)cc1)N1CCN(C(=O)C2(O)CC2)CC1 [1-{[4-({4-[7-(trifluoromethyl)quinolin-4-yl]phenyl}carbonyl)piperazin-1-yl]carbonyl}cyclopropan-1-ol],5.30 to 6.30
10,O=C(c1ccc(-c2ccc(Cl)cc2F)cc1)N1CCN(C(=O)C2(O)CC2)C[C@H]1CO [1-{[(3S)-4-{[4-(4-chloro-2-fluorophenyl)phenyl]carbonyl}-3-(hydroxymethyl)piperazin-1-yl]carbonyl}cyclopropan-1-ol],5.30 to 6.30

# Same assay, conditions: FASN enzymatic assay; Table 2-3
row,SMILES,pIC50
1,O=C(c1ccc(-c2cc(CO)ccc2Cl)cc1)N1CCN(C(=O)C2(O)CC2)CC1 [1-{[4-({4-[2-chloro-5-(hydroxymethyl)phenyl]phenyl}carbonyl)piperazin-1-yl]carbonyl}cyclopropan-1-ol],≤ 5.30
2,CC(C)Oc1cccc(-c2ccc(C(=O)N3CCN(C(=O)C4(O)CC4)CC3)cc2)c1F [1-{[4-({4-[2-fluoro-3-(propan-2-yloxy)phenyl]phenyl}carbonyl)piperazin-1-yl]carbonyl}cyclopropan-1-ol],≤ 5.30
3,CC(C)Oc1ccc(Cl)cc1-c1ccc(C(=O)N2CCN(C(=O)C3(O)CC3)CC2)cc1 [1-{[4-({4-[5-chloro-2-(propan-2-yloxy)phenyl]phenyl}carbonyl)piperazin-1-yl]carbonyl}cyclopropan-1-ol],≤ 5.30
4,O=C(c1ccc(-c2ccc(C(F)(F)F)nc2)cc1)N1CCN(C(=O)C2(O)CC2)CC1 [1-{[4-({4-[6-(trifluoromethyl)pyridin-3-yl]phenyl}carbonyl)piperazin-1-yl]carbonyl}cyclopropan-1-ol],≤ 5.30
5,"O=C(c1cn2cc(-c3ccccc3)ccc2n1)N1CCN(C(=O)C2(O)CC2)CC1 [1-{[4-({6-phenylimidazo[1,2-a]pyridin-2-yl}carbonyl)piperazin-1-yl]carbonyl}cyclopropan-1-ol]",≤ 5.30

# More lines, now with the values ahead:
row,pIC50,SMILES
1,≤ 5.30,O=C(CO)N1CCN(C(=O)c2ccc(-c3ccccc3)cc2)CC1 [2-hydroxy-1-{4-[(4-phenylphenyl)carbonyl]piperazin-1-yl}ethan-1-one]
2,≤ 5.30,CC(C)(O)C(=O)N1CCN(C(=O)c2ccc(-c3ccccc3)cc2)CC1 [2-hydroxy-2-methyl-1-{4-[(4-phenylphenyl)carbonyl]piperazin-1-yl}propan-1-one]
3,≤ 5.30,COC(C)(C)C(=O)N1CCN(C(=O)c2ccc(-c3ccccc3)cc2)CC1 [2-methoxy-2-methyl-1-{4-[(4-phenylphenyl)carbonyl]piperazin-1-yl}propan-1-one]
4,≤ 5.30,"CC(O)(C(=O)N1CCN(C(=O)c2ccc(-c3ccccc3)cc2)CC1)C(F)(F)F (centres unmarked) [3,3,3-trifluoro-2-hydroxy-2-methyl-1-{4-[(4-phenylphenyl)carbonyl]piperazin-1-yl}propan-1-one]"
